From patent US20240050574A1, “IONIZABLE LIPIDS” (eTheRNA immunotherapies NV, priority 2020, published 2024)

test: mRNA encapsulation efficiency by Ribogreen RNA assay; format: physicochemical; conditions: Table 2; LNP ionizable lipid/DOPE/cholesterol/DMG-PEG2000 about 50/10/38.5/1.5; eGFP mRNA
Description: Lipid based nanoparticles are produced by microfluidic mixing of an mRNA solution in sodium acetate buffer (100 mM, pH4) and lipid solution in a 2:1 volume ratio at a speed of 9 mL/min using the NanoAssemblr Benchtop (Precision Nanosystems). The lipid solution contained a mixture of the ionizable lipid of interest, DSPC, DOPC or DOPE (Avanti), Cholesterol (Sigma) and DMG-PEG2000 (Sunbright GM-020, NOF corporation. The 4 lipids were mixed at 6 different molar ratios. LNPs were dialyzed against TBS (10000 times more TBS volume than LNP volume) using slide-a-lyzer dialysis cassettes (20K MWCO, 3 mL, ThermoFisher). Size, polydispersity and zeta potential were measured with a Zetasizer Nano (Malvern). mRNA encapsulation was measured by standard Ribogreen RNA assay (Invitrogen). […]
LNP formulations were prepared using a modified procedure of a method previously described for siRNA LNP synthesis. All formulations were prepared in a sterile manner with a N/P ratio of 10. All lipid components were dissolved in ethanol at molar ratios of 50:10:38.5:1.5 mol % (ionizable lipid/DSPC/Cholesterol/DMG-PEG2000). DSPC, Cholesterol and DMG-PEG2000 were purchased from Avanti Polar Lipids (Alabaster, Alabama, USA), while the Ionizable lipids are synthesized in-house. The final lipid concentration in ethanol was fixed at 10 mg/mL. E7 mRNA was dissolved in 100 mM acetate buffer (Sigma Aldrich, Saint-Louis, Missouri, USA) pH 4. The ethanol and aqueous phase were combined using a microfluidic mixer (NanoAssemblr® BenchTop (Precision Nanosystems, Vancouver, BC) in a 2:1 (aqueous:ethanol) ratio. Formulations were dialysed afterwards against 1× Sterile TBS pH 7.4 (Sigma Aldrich, Saint-Louis, Missouri, USA) using Slide-A-Lyzer® dialysis cassettes with a MWCO of 20.000 Da (Thermo Scientific, Massachusetts, USA) for 18 hours. Afterwards, the purified formulations were concentrated using Amicon ultra centrifugal filters (EMD Millipore, Massachusetts, USA). Finally, the exact concentration and E.E. % was determined through a Ribogreen Assay prior to final dilution with TBS (100 μg/mL E7 mRNA per formulation. All formulations were characterized for size and PDI using Dynamic Light Scattering Zetasizer Nano-ZS (Malvern Pananlytical Ltd., Malvern, UK) and stored afterwards at 4° C. The physico-chemical characteristics of each formulation can be found in Table 5.

SMILES	% encap
CCCCCCCCCCCCCCCCCCN(CCCCCCCCCCCCCCCCCC)C(=O)OCCSSCCOC(=O)NCCN1CCCCCC1 [S-Ac7-Dsa]	99%
CCCCCCCCCCCCN(CCCCCCCCCCCC)C(=O)OCCSSCCOC(=O)NCCN(C(C)C)C(C)C [S-Adip-Dda]	98%
CCCCCCCCCCCCCCCCCCN(CCCCCCCCCCCCCCCCCC)C(=O)OCCSSCCOC(=O)NCCN(C(C)C)C(C)C [S-Adip-Dsa]	101%

Second part, the compound after the results:

% encap	SMILES
100%	CCCCCCCCCCCCN(CCCCCCCCCCCC)C(=O)OCCOC(C)(C)OCCOC(=O)NCCN(C)C [K-Adm-Dda]
95%	CCCCCCCCCCCCN(CCCCCCCCCCCC)C(=O)OCCSSCCOC(=O)NCCN1CCCCCC1 [S-Ac7-Dda]

same assay, conditions: Table 3; LNP ionizable lipid/phospholipid/cholesterol/DMG-PEG2000 about 50/10/38.5/1.5; DOPE, except MC-3 with DSPC; eGFP mRNA

SMILES	% encap
CCCCCCCCCCCCCCCCCCN(CCCCCCCCCCCCCCCCCC)C(=O)OCCSSCCOC(=O)NCCN1CCCCCC1 [S-Ac7-Dsa]	93%

test: LNP size and polydispersity index by Dynamic Light Scattering (Malvern Zetasizer); format: physicochemical; conditions: Table 2; LNP ionizable lipid/DOPE/cholesterol/DMG-PEG2000 about 50/10/38.5/1.5; eGFP mRNA

SMILES	PDI
CCCCCCCCCCCCCCCCCCN(CCCCCCCCCCCCCCCCCC)C(=O)OCCSSCCOC(=O)NCCN1CCCCCC1 [S-Ac7-Dsa]	0.188
CCCCCCCCCCCCN(CCCCCCCCCCCC)C(=O)OCCSSCCOC(=O)NCCN(C(C)C)C(C)C [S-Adip-Dda]	0.197
CCCCCCCCCCCCCCCCCCN(CCCCCCCCCCCCCCCCCC)C(=O)OCCSSCCOC(=O)NCCN(C(C)C)C(C)C [S-Adip-Dsa]	0.153

The next lines start with the values.

PDI	SMILES
0.197	CCCCCCCCCCCCN(CCCCCCCCCCCC)C(=O)OCCOC(C)(C)OCCOC(=O)NCCN(C)C [K-Adm-Dda]
0.223	CCCCCCCCCCCCN(CCCCCCCCCCCC)C(=O)OCCSSCCOC(=O)NCCN1CCCCCC1 [S-Ac7-Dda]

same assay, conditions: Table 2; LNP ionizable lipid/DOPE/cholesterol/DMG-PEG2000 about 50/10/38.5/1.5; eGFP mRNA, mRNA/ionizable lipid molar ratio 1/10; in nm (unit assumed)

SMILES	size
CCCCCCCCCCCCCCCCCCN(CCCCCCCCCCCCCCCCCC)C(=O)OCCSSCCOC(=O)NCCN1CCCCCC1 [S-Ac7-Dsa]	71.05
CCCCCCCCCCCCN(CCCCCCCCCCCC)C(=O)OCCSSCCOC(=O)NCCN(C(C)C)C(C)C [S-Adip-Dda]	86.95
CCCCCCCCCCCCCCCCCCN(CCCCCCCCCCCCCCCCCC)C(=O)OCCSSCCOC(=O)NCCN(C(C)C)C(C)C [S-Adip-Dsa]	70.9

Now from value to compound:

size	SMILES
65.56	CCCCCCCCCCCCN(CCCCCCCCCCCC)C(=O)OCCOC(C)(C)OCCOC(=O)NCCN(C)C [K-Adm-Dda]
74.28	CCCCCCCCCCCCN(CCCCCCCCCCCC)C(=O)OCCSSCCOC(=O)NCCN1CCCCCC1 [S-Ac7-Dda]

same assay, conditions: Table 3; LNP ionizable lipid/phospholipid/cholesterol/DMG-PEG2000 about 50/10/38.5/1.5; DOPE, except MC-3 with DSPC; eGFP mRNA

SMILES	PDI
CCCCCCCCCCCCCCCCCCN(CCCCCCCCCCCCCCCCCC)C(=O)OCCSSCCOC(=O)NCCN1CCCCCC1 [S-Ac7-Dsa]	0.158

same assay, conditions: Table 3; LNP ionizable lipid/phospholipid/cholesterol/DMG-PEG2000 about 50/10/38.5/1.5; DOPE, except MC-3 with DSPC; eGFP mRNA; in nm (unit assumed)

SMILES	size
CCCCCCCCCCCCCCCCCCN(CCCCCCCCCCCCCCCCCC)C(=O)OCCSSCCOC(=O)NCCN1CCCCCC1 [S-Ac7-Dsa]	89.44
